Measured values as given in PubChem BioAssay (NCI).
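Here, GI50 denotes the concentration required for 50% inhibition of growth. TGI marks complete inhibition of growth.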

Experiments:
Assay in all cases: NCI anticancer screen, dose series, 384-well format
CAKI-1 renal = tested on: CAKI-1 renal
DU-145 prostate = tested on: DU-145 prostate
HOP-92 NSCLC = tested on: HOP-92 NSCLC
KM12 colon = tested on: KM12 colon
NCI-H522 lung = tested on: NCI-H522 lung
OVCAR-4 ovarian = tested on: OVCAR-4 ovarian
OVCAR-5 ovarian = tested on: OVCAR-5 ovarian
OVCAR-8 ovarian = tested on: OVCAR-8 ovarian
PC-3 prostate = tested on: PC-3 prostate
RPMI-8226 leukemia = tested on: RPMI-8226 leukemia
SF-295 CNS = tested on: SF-295 CNS
SK-MEL-2 melanoma = tested on: SK-MEL-2 melanoma
T-47D breast = tested on: T-47D breast

Row | Structure (SMILES) | GI50 (CAKI-1 renal) [µM] | TGI (CAKI-1 renal) [µM] | GI50 (DU-145 prostate) [µM] | TGI (DU-145 prostate) [µM] | GI50 (HOP-92 NSCLC) [µM] | TGI (HOP-92 NSCLC) [µM] | GI50 (KM12 colon) [µM] | TGI (KM12 colon) [µM] | GI50 (NCI-H522 lung) [µM] | TGI (NCI-H522 lung) [µM] | GI50 (OVCAR-4 ovarian) [µM] | TGI (OVCAR-4 ovarian) [µM] | GI50 (OVCAR-5 ovarian) [µM] | TGI (OVCAR-5 ovarian) [µM] | GI50 (OVCAR-8 ovarian) [µM] | TGI (OVCAR-8 ovarian) [µM] | GI50 (PC-3 prostate) [µM] | TGI (PC-3 prostate) [µM] | GI50 (RPMI-8226 leukemia) [µM] | GI50 (SF-295 CNS) [µM] | further results
1 | C[C@@H](Oc1cc(NS(=O)(=O)N2CCC2)nc(SCc2cccc(F)c2F)n1)[C@@H](O)CO | > 60.8 | > 100 | > 100 | > 100 | > 88.1 | > 100 | 98.3 | > 100 | > 43.5 | > 100 | > 72.7 | > 100 | > 100 | > 100 | > 100 | > 100 | > 76.7 | > 100 | 20 | > 100 | TGI (RPMI-8226 leukemia): > 60 µM; TGI (SF-295 CNS): > 100 µM; GI50 (SK-MEL-2 melanoma): > 79.6 µM; TGI (SK-MEL-2 melanoma): > 100 µM; GI50 (T-47D breast): > 100 µM; TGI (T-47D breast): > 100 µM
2 | COc1cc(C)[nH]c(=O)c1CN1CCc2c(Cl)cc([C@H](OC)C3COC3)c(Cl)c2C1=O | > 100 | > 100 | > 100 | > 100 | > 100 | > 100 | > 100 | > 100 | > 100 | > 100 | > 100 | > 100 | > 100 | > 100 | > 100 | > 100 | > 100 | > 100 | 0.0849 | > 100 | TGI (SF-295 CNS): > 100 µM; GI50 (SK-MEL-2 melanoma): > 100 µM; TGI (SK-MEL-2 melanoma): > 100 µM; GI50 (T-47D breast): > 91.9 µM; TGI (T-47D breast): > 100 µM
